According to the NIST ThermoML archive (doi:10.1016/j.jct.2015.04.029):

What was measured:
[1] = wn = mass fraction of the nth substance listed; details: for surface tension liquid-gas: Maximal bubble pressure; for mass density: 100 kPa, Liquid, Vibrating tube method
[2] = refractive index (Na D-line) (dimensionless); wn = mass fraction of the nth substance listed; details: 100 kPa, Liquid, Standard Abbe refractometry

CCCCn1cc[n+](C)c1.N[C@@H](CO)C(=O)[O-] [1-butyl-3-methylimidazolium L-serinate] + O
Details	mass density [kg/m3]	refractive index	surface tension liquid-gas [mN/m]
[1], 298.15 K, w2 = 0.00489	1156.16	–	–
[1], 298.15 K, w2 = 0.00632	1156.21	–	–
[1], 298.15 K, w2 = 0.00706	–	–	46.4
[1], 298.15 K, w2 = 0.00783	1156.25	–	–
[1], 298.15 K, w2 = 0.00859	–	–	46.7
[1], 298.15 K, w2 = 0.00933	1156.29	–	–
[1], 298.15 K, w2 = 0.01019	–	–	46.9
[1], 298.15 K, w2 = 0.01094	1156.32	–	–
[1], 298.15 K, w2 = 0.01171	–	–	47.1
[1], 298.15 K, w2 = 0.01331	–	–	47.3
[1], 303.15 K, w2 = 0.00489	1152.97	–	–
[1], 303.15 K, w2 = 0.00632	1153.01	–	–
[1], 303.15 K, w2 = 0.00706	–	–	46.2
[1], 303.15 K, w2 = 0.00783	1153.06	–	–
[1], 303.15 K, w2 = 0.00859	–	–	46.4
[1], 303.15 K, w2 = 0.00933	1153.1	–	–
[1], 303.15 K, w2 = 0.01019	–	–	46.7
[1], 303.15 K, w2 = 0.01094	1153.15	–	–
[1], 303.15 K, w2 = 0.01171	–	–	46.9
[1], 303.15 K, w2 = 0.01331	–	–	47.1
[1], 308.15 K, w2 = 0.00489	1149.77	–	–
[1], 308.15 K, w2 = 0.00632	1149.82	–	–
[1], 308.15 K, w2 = 0.00706	–	–	46
[1], 308.15 K, w2 = 0.00783	1149.86	–	–
[1], 308.15 K, w2 = 0.00859	–	–	46.2
[1], 308.15 K, w2 = 0.00933	1149.91	–	–
[1], 308.15 K, w2 = 0.01019	–	–	46.4
[1], 308.15 K, w2 = 0.01094	1149.97	–	–
[1], 308.15 K, w2 = 0.01171	–	–	46.6
[1], 308.15 K, w2 = 0.01331	–	–	46.9
[1], 313.15 K, w2 = 0.00489	1146.61	–	–
[1], 313.15 K, w2 = 0.00632	1146.67	–	–
[1], 313.15 K, w2 = 0.00706	–	–	45.7
[1], 313.15 K, w2 = 0.00783	1146.72	–	–
[1], 313.15 K, w2 = 0.00859	–	–	45.9
[1], 313.15 K, w2 = 0.00933	1146.76	–	–
[1], 313.15 K, w2 = 0.01019	–	–	46.1
[1], 313.15 K, w2 = 0.01094	1146.82	–	–
[1], 313.15 K, w2 = 0.01171	–	–	46.3
[1], 313.15 K, w2 = 0.01331	–	–	46.6
[1], 318.15 K, w2 = 0.00489	1143.46	–	–
[1], 318.15 K, w2 = 0.00632	1143.52	–	–
[1], 318.15 K, w2 = 0.00706	–	–	45.4
[1], 318.15 K, w2 = 0.00783	1143.56	–	–
[1], 318.15 K, w2 = 0.00859	–	–	45.6
[1], 318.15 K, w2 = 0.00933	1143.61	–	–
[1], 318.15 K, w2 = 0.01019	–	–	45.8
[1], 318.15 K, w2 = 0.01094	1143.65	–	–
[1], 318.15 K, w2 = 0.01171	–	–	46
[1], 318.15 K, w2 = 0.01331	–	–	46.3
[1], 323.15 K, w2 = 0.00489	1140.24	–	–
[1], 323.15 K, w2 = 0.00632	1140.3	–	–
[1], 323.15 K, w2 = 0.00706	–	–	45.2
[1], 323.15 K, w2 = 0.00783	1140.34	–	–
[1], 323.15 K, w2 = 0.00859	–	–	45.4
[1], 323.15 K, w2 = 0.00933	1140.39	–	–
[1], 323.15 K, w2 = 0.01019	–	–	45.6
[1], 323.15 K, w2 = 0.01094	1140.45	–	–
[1], 323.15 K, w2 = 0.01171	–	–	45.8
[1], 323.15 K, w2 = 0.01331	–	–	46
[1], 328.15 K, w2 = 0.00489	1137.09	–	–
[1], 328.15 K, w2 = 0.00632	1137.16	–	–
[1], 328.15 K, w2 = 0.00706	–	–	44.9
[1], 328.15 K, w2 = 0.00783	1137.21	–	–
[1], 328.15 K, w2 = 0.00859	–	–	45.1
[1], 328.15 K, w2 = 0.00933	1137.27	–	–
[1], 328.15 K, w2 = 0.01019	–	–	45.3
[1], 328.15 K, w2 = 0.01094	1137.32	–	–
[1], 328.15 K, w2 = 0.01171	–	–	45.5
[1], 328.15 K, w2 = 0.01331	–	–	45.7
[1], 333.15 K, w2 = 0.00489	1133.97	–	–
[1], 333.15 K, w2 = 0.00632	1134.03	–	–
[1], 333.15 K, w2 = 0.00706	–	–	44.7
[1], 333.15 K, w2 = 0.00783	1134.08	–	–
[1], 333.15 K, w2 = 0.00859	–	–	44.9
[1], 333.15 K, w2 = 0.00933	1134.13	–	–
[1], 333.15 K, w2 = 0.01019	–	–	45.1
[1], 333.15 K, w2 = 0.01094	1134.18	–	–
[1], 333.15 K, w2 = 0.01171	–	–	45.3
[1], 333.15 K, w2 = 0.01331	–	–	45.5
[1], 338.15 K, w2 = 0.00489	1130.83	–	–
[1], 338.15 K, w2 = 0.00632	1130.9	–	–
[1], 338.15 K, w2 = 0.00706	–	–	44.5
[1], 338.15 K, w2 = 0.00783	1130.95	–	–
[1], 338.15 K, w2 = 0.00859	–	–	44.7
[1], 338.15 K, w2 = 0.00933	1131.01	–	–
[1], 338.15 K, w2 = 0.01019	–	–	44.9
[1], 338.15 K, w2 = 0.01094	1131.07	–	–
[1], 338.15 K, w2 = 0.01171	–	–	45.1
[1], 338.15 K, w2 = 0.01331	–	–	45.4
[2], 298.15 K, w2 = 0.00594	–	1.5125	–
[2], 298.15 K, w2 = 0.00746	–	1.5122	–
[2], 298.15 K, w2 = 0.00898	–	1.5117	–
[2], 298.15 K, w2 = 0.0105	–	1.5112	–
[2], 298.15 K, w2 = 0.01211	–	1.5108	–
[2], 303.15 K, w2 = 0.00594	–	1.5117	–
[2], 303.15 K, w2 = 0.00746	–	1.5113	–
[2], 303.15 K, w2 = 0.00898	–	1.5109	–
[2], 303.15 K, w2 = 0.0105	–	1.5104	–
[2], 303.15 K, w2 = 0.01211	–	1.5099	–
[2], 308.15 K, w2 = 0.00594	–	1.5109	–
[2], 308.15 K, w2 = 0.00746	–	1.5104	–
[2], 308.15 K, w2 = 0.00898	–	1.5101	–
[2], 308.15 K, w2 = 0.0105	–	1.5096	–
[2], 308.15 K, w2 = 0.01211	–	1.5091	–
[2], 313.15 K, w2 = 0.00594	–	1.5099	–
[2], 313.15 K, w2 = 0.00746	–	1.5094	–
[2], 313.15 K, w2 = 0.00898	–	1.5091	–
[2], 313.15 K, w2 = 0.0105	–	1.5087	–
[2], 313.15 K, w2 = 0.01211	–	1.5083	–
[2], 318.15 K, w2 = 0.00594	–	1.5089	–
[2], 318.15 K, w2 = 0.00746	–	1.5084	–
[2], 318.15 K, w2 = 0.00898	–	1.5079	–
[2], 318.15 K, w2 = 0.0105	–	1.5075	–
[2], 318.15 K, w2 = 0.01211	–	1.5071	–
[2], 323.15 K, w2 = 0.00594	–	1.5078	–
[2], 323.15 K, w2 = 0.00746	–	1.5073	–
[2], 323.15 K, w2 = 0.00898	–	1.5068	–
[2], 323.15 K, w2 = 0.0105	–	1.5064	–
[2], 323.15 K, w2 = 0.01211	–	1.5059	–
[2], 328.15 K, w2 = 0.00594	–	1.5071	–
[2], 328.15 K, w2 = 0.00746	–	1.5065	–
[2], 328.15 K, w2 = 0.00898	–	1.5059	–
[2], 328.15 K, w2 = 0.0105	–	1.5055	–
[2], 328.15 K, w2 = 0.01211	–	1.5049	–
[2], 333.15 K, w2 = 0.00594	–	1.5059	–
[2], 333.15 K, w2 = 0.00746	–	1.5055	–
[2], 333.15 K, w2 = 0.00898	–	1.5049	–
[2], 333.15 K, w2 = 0.0105	–	1.5045	–
[2], 333.15 K, w2 = 0.01211	–	1.5041	–
[2], 338.15 K, w2 = 0.00594	–	1.5051	–
[2], 338.15 K, w2 = 0.00746	–	1.5045	–
[2], 338.15 K, w2 = 0.00898	–	1.5041	–
[2], 338.15 K, w2 = 0.0105	–	1.5036	–
[2], 338.15 K, w2 = 0.01211	–	1.5032	–
